Measured values taken from ChEMBL document CHEMBL1135808, “A new type of mixed anhydride and its applications to the synthesis of 7-substituted 8-chloro-5,5-dioxoimidazo[1,2-b][1,4,2]benzodithiazines with in vitro antitumor activity” (2002).

Columns and labels:
SK-MEL-5 [1] = test: In vitro total growth inhibition against melanoma SK-MEL-5 cell lines was reported.; assay type: functional; conditions: Homo sapiens, read-out: Log TGI (converted)
SW-620 [2] = test: In vitro growth inhibition against colon cancer SW620 cell line was reported.; assay type: functional; conditions: Homo sapiens
IGROV-1 = test: In vitro growth inhibition against ovarian cancer IGROV1 cell line was reported.; assay type: functional; conditions: Homo sapiens
TK-10 [3] = test: In vitro total growth inhibition against renal cancer TK-10 cell lines was reported.; assay type: functional; conditions: Homo sapiens, read-out: Log TGI (converted)
HOP-92 = test: In vitro total growth inhibition against non-small-cell lung cancer HOP-92 cell lines was reported.; conditions: Homo sapiens, read-out: Log TGI (converted)
COLO 205 [4] = test: In vitro growth inhibition against colon cancer COLO 205 cell line was reported.; assay type: functional; conditions: Homo sapiens
TK-10 [5] = test: In vitro growth inhibition against renal cancer TK-10 cell line was reported.; assay type: functional; conditions: Homo sapiens
HOP-62 = test: Log of molar concentration leading to 50% cell death against non-small-cell lung cancer HOP-62 cell line was reported; assay type: functional; conditions: Homo sapiens, read-out: Log LC50 (the source's name) (converted)
NCI-H46 = test: Log of molar concentration leading to 50% cell death against non-small-cell lung cancer […] cell line was reported; assay type: functional; conditions: Homo sapiens, read-out: Log LC50 (the source's name) (converted)
Homo sapiens = species on record: Homo sapiens; test: In vitro total growth inhibition against non-small-cell lung cancer EKVX cell lines was reported.; assay type: functional; conditions: read-out: Log TGI (converted)
SF-539 [6] = test: In vitro total growth inhibition against CNS cancer SF-539 cell lines was reported.; assay type: functional; conditions: Homo sapiens, read-out: Log TGI (converted)
HCT-116 [7] = test: In vitro total growth inhibition against colon cancer HCT116 cell lines was reported.; assay type: functional; conditions: Homo sapiens, read-out: Log TGI (converted)
SF-295 [8] = test: In vitro total growth inhibition against CNS cancer SF-295 cell lines was reported.; assay type: functional; conditions: Homo sapiens, read-out: Log TGI (converted)
SF-268 = test: In vitro growth inhibition against CNS cancer SF-268 cell line was reported.; assay type: functional; conditions: Homo sapiens
NCI/ADR-RES [9] = test: In vitro growth inhibition against breast cancer NCI/ADR-RES cell line was reported.; assay type: functional; conditions: Homo sapiens
SK-MEL-5 [10] = test: Log of molar concentration leading to 50% cell death against melanoma SK-MEL-5 cell line was reported; assay type: functional; conditions: Homo sapiens, read-out: Log LC50 (the source's name) (converted)
EKVX [11] = test: In vitro growth inhibition against non-small-cell lung cancer EKVX cell line was reported.; assay type: functional; conditions: Homo sapiens
OVCAR-5 [12] = test: In vitro growth inhibition against ovarian cancer OVCAR-5 cell line was reported.; assay type: functional; conditions: Homo sapiens
OVCAR-5 [13] = test: In vitro total growth inhibition against ovarian cancer OVCAR-5 cell lines was reported.; assay type: functional; conditions: Homo sapiens, read-out: Log TGI (converted)
PC-3 = test: In vitro growth inhibition against prostate cancer PC-3 cell line was reported.; assay type: functional; conditions: Homo sapiens
SK-MEL-2 [14] = test: Log of molar concentration leading to 50% cell death against melanoma SK-MEL-2 cell line was reported; assay type: functional; conditions: Homo sapiens, read-out: Log LC50 (the source's name) (converted)
SF-539 [15] = test: Log of molar concentration leading to 50% cell death against CNS cancer SF-539 cell line was reported; assay type: functional; conditions: Homo sapiens, read-out: Log LC50 (the source's name) (converted)
OVCAR-4 = test: Log of molar concentration leading to 50% cell death against ovarian cancer OVCAR-4 cell line was reported; assay type: functional; conditions: Homo sapiens, read-out: Log LC50 (the source's name) (converted)
Tumor Cell line = test: In vitro inhibition of 50% cell growth was reported as log of molar concentration for 60 cell lines.; assay type: functional; conditions: Homo sapiens
MDA-MB-231 = test: Log of molar concentration leading to 50% cell death against breast cancer MDA-MB-231/ATCC cell line was reported; assay type: functional; conditions: Homo sapiens, read-out: Log LC50 (the source's name) (converted)
TK-10 [16] = test: Log of molar concentration leading to 50% cell death against renal cancer TK-10 cell line was reported; assay type: functional; conditions: Homo sapiens, read-out: Log LC50 (the source's name) (converted)
EKVX [17] = test: Log of molar concentration leading to 50% cell death against non-small-cell lung cancer EKVX cell line was reported; assay type: functional; conditions: Homo sapiens, read-out: Log LC50 (the source's name) (converted)
CCRF-CEM = test: In vitro total growth inhibition against leukemia CCRF cell lines was reported.; assay type: functional; conditions: Homo sapiens, read-out: Log TGI (converted)
NCI/ADR-RES [18] = test: In vitro total growth inhibition against breast cancer NCI/ADR-RES cell lines was reported.; assay type: functional; conditions: Homo sapiens, read-out: Log TGI (converted)
RXF 393 = test: In vitro total growth inhibition against renal cancer RXF 393 cell lines was reported.; assay type: functional; conditions: Homo sapiens, read-out: Log TGI (converted)
T47D = test: In vitro total growth inhibition against breast cancer […] cell lines was reported.; assay type: functional; conditions: Homo sapiens, read-out: Log TGI (converted)
UACC-257 = test: Log of molar concentration leading to 50% cell death against melanoma UACC-257 cell line was reported; assay type: functional; conditions: Homo sapiens, read-out: Log LC50 (the source's name) (converted)
NCI-H322M [19] = test: In vitro total growth inhibition against non-small-cell lung cancer NCI-H322M cell lines was reported.; assay type: functional; conditions: Homo sapiens, read-out: Log TGI (converted)
UO-31 = test: In vitro growth inhibition against renal cancer UO-31 cell line was reported.; assay type: functional; conditions: Homo sapiens
MOLT-4 = test: In vitro growth inhibition against leukemia MOLT-4 cell line was reported.; assay type: functional; conditions: Homo sapiens
K562 = test: In vitro growth inhibition against leukemia K-562 cell line was reported.; assay type: functional; conditions: Homo sapiens
SK-MEL-2 [20] = test: In vitro growth inhibition against melanoma SK-MEL-2 cell line was reported.; assay type: functional; conditions: Homo sapiens
CAKI-1 = test: In vitro total growth inhibition against renal cancer CAKI-1cell lines was reported.; assay type: functional; conditions: Homo sapiens, read-out: Log TGI (converted)
OVCAR-8 = test: Log of molar concentration leading to 50% cell death against ovarian cancer OVCAR-8 cell line was reported; assay type: functional; conditions: Homo sapiens, read-out: Log LC50 (the source's name) (converted)
SF-295 [21] = test: Log of molar concentration leading to 50% cell death against CNS cancer SF-295 cell line was reported; assay type: functional; conditions: Homo sapiens, read-out: Log LC50 (the source's name) (converted)
NCI-H522 = test: In vitro growth inhibition against non-small-cell lung cancer […] cell line was reported.; assay type: functional; conditions: Homo sapiens
UACC-62 [22] = test: In vitro growth inhibition against melanoma UACC-62 cell line was reported.; assay type: functional; conditions: Homo sapiens
SNB-75 [23] = test: In vitro growth inhibition against CNS cancer SNB-75 cell line was reported.; assay type: functional; conditions: Homo sapiens
MDA-MB-435 = test: In vitro growth inhibition against breast cancer MDA-MB-435 cell line was reported.; conditions: Homo sapiens
OVCAR-3 = test: In vitro total growth inhibition against ovarian cancer OVCAR-3 cell lines was reported.; assay type: functional; conditions: Homo sapiens, read-out: Log TGI (converted)
HL-60 = test: In vitro total growth inhibition against leukemia HL-60(TB) cell lines was reported.; assay type: functional; conditions: Homo sapiens, read-out: Log TGI (converted)
UACC-62 [24] = test: Log of molar concentration leading to 50% cell death against melanoma UACC-62 cell line was reported; assay type: functional; conditions: Homo sapiens, read-out: Log LC50 (the source's name) (converted)
COLO 205 [25] = test: In vitro total growth inhibition against colon cancer COLO 205 cell lines was reported.; assay type: functional; conditions: Homo sapiens, read-out: Log TGI (converted)
786-0 = test: In vitro growth inhibition against renal cancer […] cell line was reported.; assay type: functional; conditions: Homo sapiens
SNB-75 [26] = test: In vitro total growth inhibition against CNS cancer SNB-75 cell lines was reported.; assay type: functional; conditions: Homo sapiens, read-out: Log TGI (converted)
MDA-N = test: In vitro growth inhibition against breast cancer MDA-N cell line was reported.; assay type: functional; conditions: Homo sapiens
HCT-116 [27] = test: In vitro growth inhibition against colon cancer HCT116 cell line was reported.; assay type: functional; conditions: Homo sapiens
U-251 = test: In vitro total growth inhibition against CNS cancer U251 cell lines was reported.; assay type: functional; conditions: Homo sapiens, read-out: Log TGI (converted)
A549 = test: In vitro total growth inhibition against non-small-cell lung cancer A 549/ATCC cell lines was reported.; assay type: functional; conditions: Homo sapiens, read-out: Log TGI (converted)
BT-549 = test: In vitro growth inhibition against breast cancer BT 549 cell line was reported.; assay type: functional; conditions: Homo sapiens
RPMI-8226 = test: In vitro total growth inhibition against leukemia […] cell lines was reported.; assay type: functional; conditions: Homo sapiens, read-out: Log TGI (converted)
HCT-15 = test: In vitro total growth inhibition against colon cancer HCT-15 cell lines was reported.; assay type: functional; conditions: Homo sapiens, read-out: Log TGI (converted)
SW-620 [28] = test: In vitro total growth inhibition against colon cancer SW-620 cell lines was reported.; assay type: functional; conditions: Homo sapiens, read-out: Log TGI (converted)
NCI-H322M [29] = test: In vitro growth inhibition against non-small-cell lung cancer […] cell line was reported.; assay type: functional; conditions: Homo sapiens

## Cc1ccc2cccc(NC(=O)c3cc4c(cc3Cl)Sc3nccn3S4(=O)=O)c2n1
SK-MEL-5 [1]
  TGI: 23.4 µM
SW-620 [2]
  GI50: 7.76 µM
IGROV-1
  GI50: 3.24 µM
TK-10 [3]
  TGI: 20.9 µM
HOP-92
  TGI: 67.6 µM
COLO 205 [4]
  GI50: 17 µM
TK-10 [5]
  GI50: 8.51 µM
HOP-62
  CC50: 39.8 µM
NCI-H46
  CC50: 26.9 µM
Homo sapiens
  TGI: 25.7 µM
SF-539 [6]
  TGI: 4.9 µM
HCT-116 [7]
  TGI: 17 µM
SF-295 [8]
  TGI: 24.5 µM
SF-268
  GI50: 9.55 µM
NCI/ADR-RES [9]
  GI50: 14.5 µM
SK-MEL-5 [10]
  CC50: 50.1 µM
EKVX [11]
  GI50: 17 µM
OVCAR-5 [12]
  GI50: 16.2 µM
OVCAR-5 [13]
  TGI: 37.2 µM
PC-3
  GI50: 2.69 µM
SK-MEL-2 [14]
  CC50: 77.6 µM
SF-539 [15]
  CC50: 25.7 µM
OVCAR-4
  CC50: 61.7 µM
Tumor Cell line
  GI50: 97.7 µM
MDA-MB-231
  CC50: 49 µM
TK-10 [16]
  CC50: 45.7 µM
EKVX [17]
  CC50: 77.6 µM
CCRF-CEM
  TGI: 17 µM
NCI/ADR-RES [18]
  TGI: 41.7 µM
RXF 393
  TGI: 25.1 µM
T47D
  TGI: 6.31 µM
UACC-257
  CC50: 51.3 µM
NCI-H322M [19]
  TGI: 24.5 µM
UO-31
  GI50: 1.02 µM
MOLT-4
  GI50: 4.57 µM
K562
  GI50: 4.07 µM
SK-MEL-2 [20]
  GI50: 13.2 µM
CAKI-1
  TGI: 63.1 µM
OVCAR-8
  CC50: 53.7 µM
SF-295 [21]
  CC50: 53.7 µM
NCI-H522
  GI50: 10.5 µM
UACC-62 [22]
  GI50: 14.5 µM
SNB-75 [23]
  GI50: 6.92 µM
MDA-MB-435
  GI50: 7.94 µM
OVCAR-3
  TGI: 11.5 µM
HL-60
  TGI: 0.01 µM
UACC-62 [24]
  CC50: 67.6 µM
COLO 205 [25]
  TGI: 30.9 µM
786-0
  GI50: 16.2 µM
SNB-75 [26]
  TGI: 30.9 µM
MDA-N
  GI50: 13.8 µM
HCT-116 [27]
  GI50: 4.57 µM
U-251
  TGI: 14.5 µM
A549
  TGI: 25.7 µM
BT-549
  GI50: 11.5 µM
RPMI-8226
  TGI: 3.8 µM
HCT-15
  TGI: 27.5 µM
SW-620 [28]
  TGI: 23.4 µM
NCI-H322M [29]
  GI50: 12 µM
